± gives the expanded uncertainty stated by the source.
Conditions: Liquid, Closed cell (Static) method

C=CCC [1-butene]
vapor or sublimation pressure (312.57 K): 454.5 ± 2.3 kPa

CC(C)C [2-methylpropane]
vapor or sublimation pressure (307.86 K): 459.8 ± 2.3 kPa

C=C(C)C [2-methylpropene]
vapor or sublimation pressure (312.6 K): 465.3 ± 2.3 kPa

CSC [2-thiapropane]
vapor or sublimation pressure (307.86 K): 91.7 ± 1.3 kPa
vapor or sublimation pressure (312.58 K): 107.7 ± 1.3 kPa
vapor or sublimation pressure (312.59 K): 106.2 ± 1.3 kPa
vapor or sublimation pressure (312.6 K): 107.4 ± 1.3 kPa
vapor or sublimation pressure (317.32 K): 126 ± 1.3 kPa
vapor or sublimation pressure (317.35 K): 126 ± 1.3 kPa

C/C=C/C [(E)-2-butene]
vapor or sublimation pressure (317.29 K): 413.8 ± 2.2 kPa

C/C=C\C [(Z)-2-butene]
vapor or sublimation pressure (312.59 K): 332.2 ± 1.9 kPa

CCCC [butane]
vapor or sublimation pressure (317.47 K): 425.7 ± 2.1 kPa
